Laboratory results reported in patent US9458101B2 (priority 2009, dated 2016).

What was measured:
[1] = system: MCF-7 (Human mammary gland adenocarcinoma); assay: Cytotoxicity testing (MTS) on MCF-7; assay type: cell-based
Description: (§1) Cell lines used were A549 (Human lung carcinoma), HeLa (Human cervical carcinoma), MCF-7 (Human mammary gland adenocarcinoma), CEM (Human T-lymphoblastoid from ALL (Acute lymphoblastic leukemia)), M010B (Human glioma), M006X (Human glioma) and Jurkat (Human T-cell leukemia).
(§2) A series of dilutions were prepared and a wavelength scan of the diluted solution was used to determine the wavelength of maximum absorbance for each compound. Five standardized drug concentrations were scanned at this pre-determined wavelength to obtain an estimate of the compound's extinction coefficient.
(§3) A primary MTS assay was used to test the optimal number of cells for cytotoxicity assays. Cells were trypsinized, counted and introduced into seven lanes of a 96-well plate at different cell numbers (eight replicates per lane). Optimal cell numbers were determined after 72 and 96 hours of growth and were used in subsequent cytotoxicity assays. […] Cell viability was determined using the Cell Titer 96 AQueous One Solution Cell Proliferation Assay (Promega, U.S.A.).
(§4) Fits were performed using a dose-response model ideal for data showing an initial response plateau, a transition region, and a final response plateau.
(§5) [formula] […] Itop is the response obtained at very low/no drug concentration. The data and all parameters were normalized to Itop−Ibot, a measure of the maximum effect of the drug.

[2] = system: A549 (Human lung carcinoma); assay: Cytotoxicity testing (MTS) on A549; assay type: cell-based
Description: as §1, §2, §3, §4, §5

[3] = system: A549, HeLa, MCF-7 and CEM cell lines; assay: Cytotoxicity, mean over A549, HeLa, MCF-7 and CEM cell lines; conditions: for IC50 [log10 M] (mean logIC50): mean over A549, HeLa, MCF-7 and CEM cell lines; for cytotoxicity compared with colchicine: cytotoxicity assays
Source text: as §1, §3, §5
Cytotoxicity screening was performed on a number of cell lines based on the cancer of origin and differing morphologies.

[4] = system: HeLa (Human cervical carcinoma); assay: Cytotoxicity testing (MTS) on HeLa; assay type: cell-based
Description: as §1, §2, §3, §4, §5

[5] = system: CEM (Human T-lymphoblastoid from ALL); assay: Cytotoxicity testing (MTS) on CEM; assay type: cell-based
Description: as §1, §2, §3, §4, §5

SMILES	Fraction of cells that survive at the highest drug concentrations (Ibot) [1]	logIC50 [1] [log10 M]	Fraction of cells that survive at the highest drug concentrations (Ibot) [2]	logIC50 [2] [log10 M]	IC50 [log10 M] (mean logIC50) [3]	Fraction of cells that survive at the highest drug concentrations (Ibot) [4]	logIC50 [4] [log10 M]	Fraction of cells that survive at the highest drug concentrations (Ibot) [5]	logIC50 [5] [log10 M]	cytotoxicity compared with colchicine [3]	average IC50 values compared with colchicine ([3]; average values of Table 3)
COc1cc2c(c(O)c1OC)-c1ccc(OC)c(=O)cc1[C@@H](NC(C)=O)CC2 [Compound 3, N-[(7S)-1-hydroxy-2,3,10-trimethoxy-9-oxo-5,6,7,9-tetrahydrobenzo[α]heptalen-7-yl]acetamide]	0.518 ± 0.033	−5.25 ± 0.10	0.235 ± 0.048	−5.29 ± 0.11							
CCC(=O)Oc1c(OC)c(OC)cc2c1-c1ccc(OC)c(=O)cc1[C@@H](NC(C)=O)CC2 [Compound 4, N-[(7S)-1-((ethyl)carbonyloxy)-2,3,10-trimethoxy-9-oxo-5,6,7,9-tetrahydrobenzo[α]heptalen-7-yl]cetamide]	0.399 ± 0.021	−5.23 ± 0.07	0.332 ± 0.028	−5.07 ± 0.04	−5.27 ± 0.09	0.058 ± 0.048	−5.41 ± 0.13	−0.031 ± 0.049	−5.39 ± 0.11		
COc1c(O)cc2c(c1OC)-c1ccc(SC)c(=O)cc1[C@@H](NC(C)=O)CC2 [Compound 40, N-[(7S)-3-hydroxy-1,2-dimethoxy-3-hydroxy-10-methylsulfanyl-9-oxo-5,6,7,9-tetrahydrobenzo[α]heptalen-7-yl]acetamide]										consistently the most effective	
COc1cc2c(c(OC(C)C)c1OC)-c1ccc(OC)c(=O)cc1[C@@H](NC(C)=O)CC2 [Compound 7, N-[(7S)-1-(ethoxy-1-methyl)-2,3,10-trimethoxy-9-oxo-5,6,7,9-tetrahydrobenzo[α]heptalen-7-yl]acetamide]	0.464 ± 0.009	−8.10 ± 0.05	0.229 ± 0.014	−7.66 ± 0.08	−8.12 ± 0.08	0.066 ± 0.022	−8.25 ± 0.09	0.000 ± 0.014	−8.49 ± 0.10	moderately better than colchicine	stronger than colchicine
COc1cc2c(c(OC(C)=O)c1OC)-c1ccc(OC)c(=O)cc1[C@@H](NC(C)=O)CC2 [Compound 2, N-[(7S)-2,3,10-trimethoxy-1-((methyl)carbonyloxy)-9-oxo-5,6,7,9-tetrahydrobenzo[α]heptalen-7-yl]acetamide]	0.424 ± 0.019	−6.32 ± 0.10	0.283 ± 0.022	−5.89 ± 0.06	−6.34 ± 0.09	0.074 ± 0.031	−6.48 ± 0.13	0.027 ± 0.021	−6.65 ± 0.08		
COc1c(O)cc2c(c1OC)-c1ccc(OC)c(=O)cc1[C@@H](NC(C)=O)CC2 [Compound 50]										consistently the most effective	
